# Measured values published in US9493423B2, “Compounds capable of inhibiting voltage gated calcium ion channel, and pharmaceutical compositions comprising the same” (KOREA INSTITUTE OF SCIENCE AND TECHNOLOGY, priority 2015, dated 2016).
# How the values were obtained:
# Format in all cases: cell-based
# [1] = target: T1, α1G T-type calcium ion channel (Homo sapiens, UniProt O43497); experiment: Antagonistic activity against T-type calcium ion channel, α1G (FDSS6000 screening / whole cell patch clamp in HEK293 cells); conditions: HEK293 cells expressing α1G
# T1 construct: host or cells: HEK293 stably expressing α1G and Kir2.1, selected with G-418
# T1 sequence (O43497 whole entry): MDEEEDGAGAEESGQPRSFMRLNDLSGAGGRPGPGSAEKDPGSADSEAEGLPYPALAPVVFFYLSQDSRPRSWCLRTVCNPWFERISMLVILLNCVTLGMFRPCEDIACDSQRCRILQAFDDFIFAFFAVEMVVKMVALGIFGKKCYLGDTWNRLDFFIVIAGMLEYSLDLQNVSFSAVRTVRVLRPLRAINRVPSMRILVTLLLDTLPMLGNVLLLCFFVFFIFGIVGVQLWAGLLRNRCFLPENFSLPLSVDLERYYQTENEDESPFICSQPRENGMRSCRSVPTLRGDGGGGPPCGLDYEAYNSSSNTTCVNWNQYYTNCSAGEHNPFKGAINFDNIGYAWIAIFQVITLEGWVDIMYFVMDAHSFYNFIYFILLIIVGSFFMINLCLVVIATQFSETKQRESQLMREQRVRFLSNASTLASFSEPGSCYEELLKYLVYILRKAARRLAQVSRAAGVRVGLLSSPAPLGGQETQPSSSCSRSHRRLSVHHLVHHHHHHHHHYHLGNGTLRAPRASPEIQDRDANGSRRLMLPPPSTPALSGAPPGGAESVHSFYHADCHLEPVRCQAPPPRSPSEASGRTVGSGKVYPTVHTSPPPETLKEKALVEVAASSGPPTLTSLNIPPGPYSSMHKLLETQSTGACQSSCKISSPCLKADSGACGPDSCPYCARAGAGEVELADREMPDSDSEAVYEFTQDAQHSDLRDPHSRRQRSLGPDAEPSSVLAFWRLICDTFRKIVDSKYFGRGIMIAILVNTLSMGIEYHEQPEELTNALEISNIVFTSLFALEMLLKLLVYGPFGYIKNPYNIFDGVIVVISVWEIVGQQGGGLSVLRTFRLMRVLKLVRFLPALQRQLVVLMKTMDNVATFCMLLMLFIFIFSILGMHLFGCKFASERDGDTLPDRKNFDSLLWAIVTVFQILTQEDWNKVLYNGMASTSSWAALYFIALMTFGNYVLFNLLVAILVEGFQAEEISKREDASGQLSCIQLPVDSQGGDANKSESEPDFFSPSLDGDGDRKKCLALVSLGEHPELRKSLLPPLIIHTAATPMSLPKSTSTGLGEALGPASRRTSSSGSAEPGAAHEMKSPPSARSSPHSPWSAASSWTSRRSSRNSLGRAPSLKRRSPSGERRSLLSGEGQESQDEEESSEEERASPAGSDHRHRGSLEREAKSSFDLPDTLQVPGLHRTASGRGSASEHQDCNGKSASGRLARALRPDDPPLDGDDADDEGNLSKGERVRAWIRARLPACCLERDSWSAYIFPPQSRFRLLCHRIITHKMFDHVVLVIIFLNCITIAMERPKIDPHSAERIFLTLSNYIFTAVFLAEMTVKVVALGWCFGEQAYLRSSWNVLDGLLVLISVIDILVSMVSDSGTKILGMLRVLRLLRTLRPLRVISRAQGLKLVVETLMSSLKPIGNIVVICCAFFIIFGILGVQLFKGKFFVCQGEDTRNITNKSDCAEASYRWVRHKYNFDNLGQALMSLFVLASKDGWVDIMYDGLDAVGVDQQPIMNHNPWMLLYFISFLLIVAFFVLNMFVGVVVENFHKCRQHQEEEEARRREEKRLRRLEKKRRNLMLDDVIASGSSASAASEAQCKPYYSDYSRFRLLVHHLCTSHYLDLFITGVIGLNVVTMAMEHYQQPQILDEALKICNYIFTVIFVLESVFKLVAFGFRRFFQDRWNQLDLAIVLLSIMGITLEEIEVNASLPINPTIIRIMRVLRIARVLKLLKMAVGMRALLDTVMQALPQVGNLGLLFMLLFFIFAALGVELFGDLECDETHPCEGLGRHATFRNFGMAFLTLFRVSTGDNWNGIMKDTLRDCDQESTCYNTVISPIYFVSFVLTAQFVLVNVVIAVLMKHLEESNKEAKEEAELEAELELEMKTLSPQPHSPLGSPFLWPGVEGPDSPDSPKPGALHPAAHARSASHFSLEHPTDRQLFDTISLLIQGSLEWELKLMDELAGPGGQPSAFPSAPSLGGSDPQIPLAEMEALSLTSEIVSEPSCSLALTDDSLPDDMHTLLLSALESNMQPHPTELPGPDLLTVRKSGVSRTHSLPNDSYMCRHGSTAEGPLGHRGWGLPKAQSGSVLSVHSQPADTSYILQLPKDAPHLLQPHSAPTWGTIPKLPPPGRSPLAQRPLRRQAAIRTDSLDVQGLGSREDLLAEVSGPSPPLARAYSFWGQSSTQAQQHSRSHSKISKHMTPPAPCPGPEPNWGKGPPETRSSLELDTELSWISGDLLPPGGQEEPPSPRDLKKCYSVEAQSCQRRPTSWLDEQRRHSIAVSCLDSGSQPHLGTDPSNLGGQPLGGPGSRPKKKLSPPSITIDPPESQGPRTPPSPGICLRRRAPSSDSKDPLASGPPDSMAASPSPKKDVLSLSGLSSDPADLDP
# Experimental: The novel compounds, represented by Chemical Formula 1, of the present invention were assayed for antagonistic activity against T-type calcium ion channels as follows.
# After being synthesized, the compounds were primarily screened for inhibitory activity against T-type channels using a high-throughput screening device FDSS6000, and selection was made of the synthetic compounds that blocked T-type channels at an inhibitory rate of 40% or higher. In a secondary screening process, the selected compounds were examined for the effective inhibitory concentration IC50 by measuring Ca^2+ potentials in human HEK293 cells.
# Using Titertek Multidrop Plate Dispenser, HEK293 cell line cells that stably expressed alG T-type calcium ion channel and Kir2.1 (α1G cell line: KCTC 10519BP, Korean Human Gene Bank of the Korea Research Institute of Bioscience and Biotechnology) were seeded at a density of 4×10^4 cells/well into 96-well plates that were treated with poly-L-lysine (0.05 mg/ml) 12˜24 hrs before activity screening. On the day of test, the cells adherent to the 96-well plates were washed three times with a HEPES buffer (150 mM NaCl, 5 mM KCl, 1 mM MgCl2, 2 mM CaCl2, 10 mM HEPES, 10 mM glucose, pH 7.4) using a 96-well plate washer (Bio Tek), and then stained with a fluorescent dye by treatment with a HEPES containing 5 μM fluo-3/AM and 0.001% Pluronic F-127 for 1 hr at room temperature. Again, the cells were washed twice with a HEPES buffer. Ten minutes before reading on FDSS6000, the cells were washed once with a HEPES buffer containing 10 mM CaCl2, and the final volume per well was adjusted to 81 μL. Separately from the 96-well plates in which cells were contained, two 96-well plates were prepared so as to contain KCl (final concentration 75 mM), which activates T-type calcium ion channels, and blocker drugs therein. Since most cell-based HTS devices, although provided with a liquid application system necessary for drug infusion, have no liquid absorption systems, blocker drugs to be searched for and KCl were individually prepared into a 5-fold higher concentration in 27 μL of 10 mM CaCl2 HEPES. The concentration was 1/5 diluted into a final volume of 135 μL in each well before measurement. For the FDSS6000 measurements, cells were pre-incubated with drugs for 75 seconds after the 20-sec baseline recordings, and a change in intracellular calcium concentration induced by KCl was measured. The percent inhibition by a test compound was calculated as integrated values of 340/380 fluorescent ratio of untreated and drug-treated cells.
# For accurate calcium-imaging, the light source of 4 xenon lamps in FDSS6000 were irradiated to make the cells exposed selectively to the excitation wavelength (340 nm and 380 nm) by computer-controlled filter wheel. Data was obtained at regular intervals of each 1.23 second. The emitter fluorescence light flew in through a long-pass filter was obtained as an average 340/380 ratio value for each well in the 96-wells by using CCD camera and digital fluorescence analyzer in FDSS6000. All image data and analyses were obtained by using FDSS6000-exclusive program provide from Hamamatsu Photonics.
# Dulbecco's modified Eagle's medium (DMEM) supplemented with 10% fetal bovine serum (FBS) and 1% penicillin/streptomycin (v/v) was employed. The cells were cultured at 36.5° C. in a humidified condition of 95% air/5% CO2 in an incubator. The medium was refreshed every 3 or 4 days while the cells were sub-cultured every week, with the growth of only α1G T-type calcium ion channel-expressing cells in the presence of G-418 (0.5 mg/mL). The recording to the cells used in the T-type calcium channel activity analysis was conducted 2-7 days after the cells were culturing on a cover slip coated with poly-L-lysine (0.5 mg/mL) when conducting every sub-culture. For analysis at a single cell level, the T-type calcium channel current was measured by an electrophysiological whole cell patch clamp method using EPC-9 amplifier (HEKA, German). […]
# [2] = test system: KYSE410 (Human Esophageal Carcinoma); experiment: SRB (sulforhodamine B) assay of cancer cell growth, KYSE410; design: dose or concentration left out as unconfirmed; conditions: 48 hrs incubation
# Experimental: (§1) For this assay, the cells at passages were separated from the surfaces of well plates using a trypsin-EDTA solution, and seeded at a density of 5×10^3 cells/well into 96-well plates. After 24 hrs of incubation in a CO2 incubator, the medium was removed. A 4-fold dilution of each of the compounds was added in an amount of 100 μL to each well, and the cells were incubated for 48 hrs. The cells were fixed by adding 100 μL of formalin to each well, washed five times with distilled water, dried at room temperature. The cells in each well were stained with 100 μL of 0.4% SRB for 30 min. at room temperature, washed five times with 1% acetic acid, and dried at room temperature. […] The optical density was read at 540 nm.
# (§2) To calculate pharmaceutical efficacy of test compounds in cancer cells, GI50 was calculated according to the following Equation 1 or 2: […]
# (§3) (wherein T0 is the number of cells before the addition of a test compound, and T2 is the number of cells after 48 hrs of incubation in the presence of a test compound)
# (§4) The inhibition of cancer cell growth by the test compound (% inhibition) was determined by data regression using the Lotus program from the values calculated according to Equation 1, and the IC50 value was calculated from the % inhibition.
# [3] = test system: HT-1080 (Human Fibroblastoma); experiment: SRB (sulforhodamine B) assay of cancer cell growth, HT-1080; design: dose or concentration left out as unconfirmed; conditions: 48 hrs incubation
# Experimental: as §1, §2, §3, §4
# [4] = test system: LNCap (Human Prostate Carcinoma); experiment: SRB (sulforhodamine B) assay of cancer cell growth, LNCap; design: dose or concentration left out as unconfirmed; conditions: 48 hrs incubation
# Experimental: as §1, §2, §3, §4
# [5] = test system: U87-MG (Human Glioma); experiment: SRB (sulforhodamine B) assay of cancer cell growth, U87-MG; design: dose or concentration left out as unconfirmed; conditions: 48 hrs incubation
# Experimental: as §1, §2, §3, §4
SMILES,inhibition at 10 µM [1] [%],further results
"CC(C)Cc1cc(CNS(=O)(=O)c2cccc(Cl)c2)nn1-c1ccccc1 [Compound 3, N-[(5-Isobutyl-1-phenyl-1H-pyrazol-3-yl)methyl]-3-chlorobenzenesulfonamide]",57.6,
"CC(C)Cc1cc(CNS(=O)(=O)c2cccc3cccnc23)nn1-c1ccccc1 [Compound 10, N-[(5-Isobutyl-1-phenyl-1H-pyrazol-3-yl)methyl]quinoline-8-sulfonamide]",29.8,
"CC(C)Cc1cc(CNS(=O)(=O)c2cccc(F)c2)nn1-c1ccccc1 [Compound 2, N-[(5-Isobutyl-1-phenyl-1H-pyrazol-3-yl)methyl]-3-fluorobenzenesulfonamide]",64.1,
"CC(C)Cc1cc(CNS(=O)(=O)Cc2ccccc2)nn1-c1ccccc1 [Compound 7, N-[(5-Isobutyl-1-phenyl-1H-pyrazol-3-yl)methyl]benzylsulfonamide]",65.7,
"CC(C)Cc1cc(CNS(=O)(=O)c2c(F)cccc2F)nn1-c1ccccc1 [Compound 13, N-[(5-Isobutyl-1-phenyl-1H-pyrazol-3-yl)methyl]-2,6-difluorobenzenesulfonamide]",45.1,
"Cc1ccc(F)c(S(=O)(=O)NCc2cc(CC(C)C)n(-c3ccccc3)n2)c1 [Compound 11, N-[(5-Isobutyl-1-phenyl-1H-pyrazol-3-yl)methyl]-(2-fluoro-5-methyl)benzenesulfonamide]",,Inhibition % α1G (10 μM) [1]: 54.86%; Inhibition % for Cancer Cell KYSE410 [2]: 47.30%; Inhibition % for Cancer Cell HT1080 [3]: 57.56%; Inhibition % for Cancer Cell LNCap [4]: 71.41%; Inhibition % for Cancer Cell U87-MG [5]: 34.40%
"CC(C)Cc1cc(CNS(=O)(=O)c2ccccc2)nn1-c1ccccc1 [Compound 1, N-[(5-Isobutyl-1-phenyl-1H-pyrazol-3-yl)methyl]benzenesulfonamide]",61.4,
"CC(C)Cc1cc(CN2Cc3ccccc3S2(=O)=O)nn1-c1ccc(F)cc1 [Compound 30, 2-[{1-(4-Fluorophenyl)-5-isobutyl-1H-pyrazol-3-yl}methyl]-2,3-dihydro[d]isothiazole 1,1-dioxide]",,Inhibition % α1G (10 μM) [1]: 70.81%
"CC(C)Cc1cc(CN2Cc3ccccc3S2(=O)=O)nn1C(C)(C)C [Compound 29, 2-[{1-(tert-Butyl)-5-isobutyl-1H-pyrazol-3-yl}methyl]-2,3-dihydro[d]isothiazole 1,1-dioxide]",,Inhibition % α1G (10 μM) [1]: 60.62%
"Cc1c(CNS(=O)(=O)c2ccccc2)nn(-c2ccccc2)c1CC(C)C [Compound 15, N-[(5-Isobutyl-4-methyl-1-phenyl-1H-pyrazol-3-yl)methyl]benzenesulfonamide]",70.5,
"Cc1ccc(S(=O)(=O)NCc2cc(CC(C)C)n(-c3ccccc3)n2)cc1 [Compound 4, N-[(5-Isobutyl-1-phenyl-1H-pyrazol-3-yl)methyl]-4-methylbenzenesulfonamide]",57.3,
"CC(C)(C)n1nc(CN2Cc3ccccc3S2(=O)=O)cc1-c1ccc(C2CCCCC2)cc1 [Compound 36, 2-[{1-(tert-Butyl)-5-(4-cyclohexylphenyl)-1H-pyrazol-3-yl}methyl]-2,3-dihydro[d]isothiazole 1,1-dioxide]",,Inhibition % α1G (10 μM) [1]: 45.62%

# Continued, in another order:
inhibition at 10 µM [1] [%],SMILES,further results
74.2,"Cc1c(CNS(=O)(=O)c2ccc3ccccc3c2)nn(-c2ccccc2)c1CC(C)C [Compound 16, N-[(5-Isobutyl-4-methyl-1-phenyl-1H-pyrazol-3-yl)methyl]naphthalene-2-sulfonamide]",
45.6,"CC(C)Cc1cc(CNS(=O)(=O)c2ccccc2)nn1-c1ccc(F)cc1 [Compound 20, N-[(5-Isobutyl-1-(4-fluorophenyl)-1H-pyrazol-3-yl)methyl]benzenesulfonamide]",
67.9,"CC(C)Cc1cc(CN2Cc3ccccc3S2(=O)=O)nn1-c1ccccc1 [Compound 28, 2-((5-Isobutyl-1-phenyl-1H-pyrazol-3-yl)methyl)-2,3-dihydrobenzo[d]isothiazole-1,1-dioxide]",
